Source: patent US10111936B2, “Metal-glycoprotein complexes and photodynamic therapy of immune privileged sites with same” (Theralase Technologies, Inc., priority 2015, dated 2018)
Read-outs that look alike come from different tables or passages of the source.

How the values were obtained:
AY27 cancer cell line [1] = assay: In vitro PDT effect, Presto Blue cell kill; assay type: cell-based; settings: 90 J cm−2, 0.4 mg/mL human transferrin, 30 minutes
Description: The photosensitizer was pre-mixed with 0.4 mg/mL human transferrin and incubated for 1 hour at 37° C. In control group (no additional transferrin), equivalent volume of no-transferrin medium was added. The cells were subsequently incubated with the pre-mixes for 30 minutes (FIG. 14A) or 90 minutes (FIG. 14B). After that, the medium was replaced with a fresh one (without photosensitizer and transferrin) and the cells were irradiated. On the next day (21 hours post-irradiation), viability of the cells was measured using Presto Blue viability assay, and percent of cell kill was calculated. The PDT effect shown is a result of subtraction of “photosensitizer alone” and “light alone” cell kill from the total PDT cell kill.
The photosensitizer was pre-mixed with 0.4 mg/mL human transferrin and incubated for 1 hour at 37° C. In control group (no additional transferrin), equivalent volume of no-transferrin medium was added. The cells were subsequently incubated with the pre-mixes for 30 minutes. After that, the medium was replaced with a fresh one (without photosensitizer and transferrin) and the cells were irradiated. On the next day (21 hours post-irradiation), viability of the cells was measured using Presto Blue viability assay, and percent of cell kill was calculated. […]

[2] = Singlet oxygen production, cell free (SOG indicator fluorescence); assay type: physicochemical; parameters: unit not given here
Description: (§1) The photosensitizers were diluted in phosphate buffer (pH=7.0)+100 mM NaCl or incomplete DMEM. The irradiation was performed in 96-well plates (100 uL working volume). Generation of singlet oxygen was measured by fluorescence signal of SOG indicator, generation of hydroxyl radical by fluorescence signal of HPF indicator. The signal presented is a result of subtraction of the signal in the presence of scavengers (NaN3 for singlet oxygen and DMTU for hydroxyl radical) from the total fluorescence signal.

AY27 cancer cell line [3] = assay: In vitro dark toxicity, Presto Blue cell kill; assay type: cell-based; settings: 0.4 mg/mL human transferrin, 30 minutes
Description: The photosensitizer was pre-mixed with 0.4 mg/mL human transferrin and incubated for 1 hour at 37° C. In control group (no additional transferrin), equivalent volume of no-transferrin medium was added. The cells were subsequently incubated with the pre-mixes for 30 minutes (FIG. 12A) or 90 minutes (FIG. 12B). After that, the medium was replaced with a fresh one (without photosensitizer and transferrin). On the next day (21 hours post-irradiation), viability of the cells was measured using Presto Blue viability assay, and percent of cell kill was calculated.
The photosensitizer was pre-mixed with 0.4 mg/mL human transferrin and incubated for 1 hour at 37° C. In control group (no additional transferrin), equivalent volume of no-transferrin medium was added. The cells were subsequently incubated with the pre-mixes for 30 minutes. After that, the medium was replaced with a fresh one (without photosensitizer and transferrin). On the next day (21 hours post-irradiation), viability of the cells was measured using Presto Blue viability assay, and percent of cell kill was calculated.

Mice = assay: In vivo toxicity, maximum tolerated dose, i.p. escalating doses; parameters: species or system mouse; settings: no transferrin
Description: Mice were injected (i.p.) with escalating doses of the photosensitizers with and without transferrin.

[4] = In vivo tissue uptake, tumor versus muscle; settings: 10 mg/kg i.v.; transferrin 1 mg/kg
Description: Transferrin was dissolved in 40% PG in phosphate buffer (pH=7.0)+100 mM NaCl (0.1 mg/100 uL) and added to the photosensitizer solution (to achieve 10 mg/kg dose). The mixture was incubated for 1 hour prior to injection, and 100 uL of the mixture was injected i.v. to each animal.

[5] = Hydroxyl radical production, cell free (HPF indicator fluorescence); assay type: physicochemical; parameters: unit not given here
Description: as §1

Subcutaneous tumors = assay: In vivo PDT of subcutaneous tumors in mouse thighs
Description: Subcutaneous tumors were grown in mouse thighs and PDT (808 nm, 600 Jcm^−2) was performed when tumor reached 5×5 mm in size. Mice were sacrificed if tumor continued to grow after PDT treatment and reached 10×10 mm.
Subcutaneous tumors were grown in mouse thighs and PDT (635 nm, 192 Jcm^−2) was performed when tumor reached 5×5 mm in size. Mice were sacrificed if tumor continued to grow after PDT treatment and reached 10×10 mm.
Subcutaneous tumors were grown in mouse thighs and PDT (525 nm, 90 Jcm^−2) was performed when tumor reached 5×5 mm in size. Mice were sacrificed if tumor continued to grow after PDT treatment and reached 10×10 mm.

[6] = 530 nm & 1092 J cm−2, incomplete DMEM, 0.8 mg/mL transferrin
[7] = 530 nm & 1092 J cm−2, incomplete DMEM, 1.6 mg/mL transferrin
[8] = 530 nm & 1092 J cm−2, incomplete DMEM, 3.2 mg/mL transferrin
[9] = 530 nm & 1092 J cm−2, incomplete DMEM, no transferrin
[10] = 530 nm & 1092 J cm−2, phosphate buffer, 0.8 mg/mL transferrin
[11] = 530 nm & 1092 J cm−2, phosphate buffer, 1.6 mg/mL transferrin
[12] = 530 nm & 1092 J cm−2, phosphate buffer, 3.2 mg/mL transferrin
[13] = 530 nm & 1092 J cm−2, phosphate buffer, no transferrin
[14] = 635 nm & 649 J cm−2, incomplete DMEM, 0.8 mg/mL transferrin
[15] = 635 nm & 649 J cm−2, incomplete DMEM, 1.6 mg/mL transferrin
[16] = 635 nm & 649 J cm−2, incomplete DMEM, 3.2 mg/mL transferrin
[17] = 635 nm & 649 J cm−2, incomplete DMEM, no transferrin
[18] = 635 nm & 649 J cm−2, phosphate buffer, 0.8 mg/mL transferrin
[19] = 635 nm & 649 J cm−2, phosphate buffer, 1.6 mg/mL transferrin
[20] = 635 nm & 649 J cm−2, phosphate buffer, 3.2 mg/mL transferrin
[21] = 635 nm & 649 J cm−2, phosphate buffer, no transferrin
[22] = 808 nm & 4000 J cm−2, incomplete DMEM, 0.8 mg/mL transferrin
[23] = 808 nm & 4000 J cm−2, incomplete DMEM, 1.6 mg/mL transferrin
[24] = 808 nm & 4000 J cm−2, incomplete DMEM, 3.2 mg/mL transferrin
[25] = 808 nm & 4000 J cm−2, incomplete DMEM, no transferrin
[26] = 808 nm & 4000 J cm−2, phosphate buffer, 0.8 mg/mL transferrin
[27] = 808 nm & 4000 J cm−2, phosphate buffer, 1.6 mg/mL transferrin
[28] = 808 nm & 4000 J cm−2, phosphate buffer, 3.2 mg/mL transferrin
[29] = 808 nm & 4000 J cm−2, phosphate buffer, no transferrin
[30] = 530 nm, 90 J cm−2, no transferrin

## [Os+2].c1ccc2cc3nc4c5cccnc5c5ncccc5c4nc3cc2c1.c1ccc2nc(-c3ccc4ccccc4n3)ccc2c1.c1ccc2nc(-c3ccc4ccccc4n3)ccc2c1 [TLDOsH2dppn]
AY27 cancer cell line [1]; 530 nm
  PDT effect, effect of transferrin: increases PDT effect
AY27 cancer cell line [1]; 635 nm
  PDT effect, effect of transferrin: increases PDT effect
[2]; [6]
  singlet oxygen production: 35127
[2]; [7]
  singlet oxygen production: 43927
[2]; [8]
  singlet oxygen production: 61734
[2]; [9]
  singlet oxygen production: 36391
[2]; [10]
  singlet oxygen production: 42816
[2]; [11]
  singlet oxygen production: 56372
[2]; [12]
  singlet oxygen production: 77219
[2]; [13]
  singlet oxygen production: 25937
[2]; [14]
  singlet oxygen production: 53931
[2]; [15]
  singlet oxygen production: 75293
[2]; [16]
  singlet oxygen production: 81807
[2]; [17]
  singlet oxygen production: 15109
[2]; [18]
  singlet oxygen production: 42837
[2]; [19]
  singlet oxygen production: 51832
[2]; [20]
  singlet oxygen production: 72938
[2]; [21]
  singlet oxygen production: 10392
[2]; [22]
  singlet oxygen production: 25384
[2]; [23]
  singlet oxygen production: 55631
[2]; [24]
  singlet oxygen production: 62804
[2]; [25]
  singlet oxygen production: 11907
[2]; [26]
  singlet oxygen production: 10000
[2]; [27]
  singlet oxygen production: 30000
[2]; [28]
  singlet oxygen production: 40000
[2]; [29]
  singlet oxygen production: 8000
HT1376 cells; [30]
  Therapeutic Ratio: 1548.2
HT1376 cells; 530 nm, 90 J cm−2, transferrin
  Therapeutic Ratio: 4963.8
HT1376 cells; 650 nm, 90 J cm−2, no transferrin (cell not marked prophetic)
  Therapeutic Ratio: 37.7
HT1376 cells; 650 nm, 90 J cm−2, transferrin
  Therapeutic Ratio: 61.9
AY27 cancer cell line [3]
  dark toxicity, effect of transferrin: decreases dark toxicity
AY27 cells; [30]
  Therapeutic Ratio: 1639.8
AY27 cells; 530 nm, 90 J cm−2, transferrin
  Therapeutic Ratio: 5531.9
AY27 cells; 650 nm, 90 J cm−2, no transferrin
  Therapeutic Ratio: 28.7
AY27 cells; 650 nm, 90 J cm−2, transferrin
  Therapeutic Ratio: 61.7
Mice
  MTD Dose: 50 mg/kg
[4]
  uptake of the photosensitizer into tissues, effect of transferrin: increases uptake
[5]; [6]
  hydroxyl radical production: 70308
[5]; [7]
  hydroxyl radical production: 132309
[5]; [8]
  hydroxyl radical production: 164301
[5]; [9]
  hydroxyl radical production: 32934
[5]; [10]
  hydroxyl radical production: 41037
[5]; [11]
  hydroxyl radical production: 83034
[5]; [12]
  hydroxyl radical production: 120307
[5]; [13]
  hydroxyl radical production: 25290
[5]; [14]
  hydroxyl radical production: 32531
[5]; [15]
  hydroxyl radical production: 42806
[5]; [16]
  hydroxyl radical production: 73624
[5]; [17]
  hydroxyl radical production: 12093
[5]; [18]
  hydroxyl radical production: 25280
[5]; [19]
  hydroxyl radical production: 45372
[5]; [20]
  hydroxyl radical production: 72316
[5]; [21]
  hydroxyl radical production: 8804
[5]; [22]
  hydroxyl radical production: 42305
[5]; [23]
  hydroxyl radical production: 77024
[5]; [24]
  hydroxyl radical production: 102864
[5]; [25]
  hydroxyl radical production: 14237
[5]; [26]
  hydroxyl radical production: 13408
[5]; [27]
  hydroxyl radical production: 20392
[5]; [28]
  hydroxyl radical production: 56094
[5]; [29]
  hydroxyl radical production: 8931
Subcutaneous tumors; PDT 525 nm, 90 Jcm−2, with transferrin
  Survival by day 80: 78%
Subcutaneous tumors; PDT 525 nm, 90 Jcm−2, without transferrin
  Survival by day 80: 37%
Subcutaneous tumors; PDT 635 nm, 192 Jcm−2, with transferrin
  Survival by day 80: 75%
Subcutaneous tumors; PDT 635 nm, 192 Jcm−2, without transferrin
  Survival by day 80: 35%
Subcutaneous tumors; PDT 808 nm, 600 Jcm−2, with transferrin
  Survival by day 80: 80%
Subcutaneous tumors; PDT 808 nm, 600 Jcm−2, without transferrin
  Survival by day 80: 40%
